{
  "source": "paper PMC5731860",
  "about": "“Novel allylated monocarbonyl analogs of curcumin induce mitotic arrest and apoptosis by reactive oxygen species-mediated endoplasmic reticulum stress and inhibition of STAT3” (Oncotarget, 2017)",
  "key": {"HT-29": {"test_system": "HT-29", "assay": "MTT assay, growth inhibition", "assay_type": "cell-based", "conditions": "Homo sapiens, HT-29, 24 h", "description": "(§1) First, we investigated whether allylated MAC alter the viability or have cytotoxic effects on cells in culture. We have performed MTT tetrazolium reduction assay following exposure of cancer cells (gastric cancer, BGC823 and SGC-7901; colon cancer, HT-29, HCT-116 and SW-480) and normal gastric epithelial cells (GES-1) to all 20 allylated MAC at a concentration of 20 μM for 24 h. […] In addition, we also found notable solubility and stability profile of these compounds (Supplementary Figure 1).\n(§2) Cells were plated at a density of 8 × 10^3 cells/well in 96-well plates and allowed to attach overnight. Stock solutions of allylated MAC and curcumin were prepared in DMSO and diluted in culture media to obtain appropriate concentration. Cells were treated for 24 h and 48 h, following which, 20 μL of 5 mg/ml MTT reagent was added. Purple formazan product was dissolved by the addition of 100 μL DMSO to each well. Absorbance was then monitored at 490 nm using a plate reader (Molecular Device Spectra MAX190, USA). Percentage of cytotoxicity was determined using the following formula: Growth inhibition (%) = (OD of control−OD of test/OD of control×100%)."}, "GES-1": {"test_system": "GES-1", "assay": "MTT assay, growth inhibition in normal gastric epithelial cells", "assay_type": "cell-based, human", "description": "as §1, §2"}, "[1]": {"test_system": "p-PERK, p-eIF2α, ATF-4 and CHOP", "assay": "Western blot of ER stress proteins", "assay_type": "cell-based, human", "conditions": "SGC-7901, 10 μM, 1, 3, 6 and 12 h", "description": "(§3) Protein samples were prepared from cells following treatments or tumor tissues. Protein concentration was determined by Bradford protein assay kit (Bio-Rad, Hercules, CA). Samples were separated on precast 8%-12% SDS polyacrylamide gels. After electrophoresis, proteins were transferred to poly vinylidene difluoride (PVDF) membrane. The membranes were blocked with 5% non-fat milk in tris-buffered saline containing 0.1% Tween 20 (TBST) for 90 min at room temperature, then primary antibodies (1:1000) in TBST were added and membranes incubated overnight at 4°C. After washing with TBST, horseradish peroxidase (HRP)-conjugated secondary antibodies (1:3000) were added for 1 hour at room temperature. After additional washing with TBST, enhanced chemiluminescence detection system (ECL, GE Healthcare) was used. Membranes were probed for GAPDH as a loading control. The density of the immunoreactive bands was analyzed using Image J (National Institute of Health, MD)."}, "HCT-116": {"test_system": "HCT-116", "assay": "MTT assay, growth inhibition", "assay_type": "cell-based, human", "description": "as §1, §2"}, "SW-480": {"test_system": "SW-480", "assay": "MTT assay, growth inhibition", "assay_type": "cell-based, human", "conditions": "Homo sapiens, SW480, 24 h", "description": "as §1, §2"}, "SGC-7901 cells": {"test_system": "SGC-7901 cells", "assay": "Malondialdehyde (MDA) and total GSH in cancer cells", "assay_type": "cell-based, human", "description": "The treated cells were harvested with RIPA buffer at 4°C. Cell lysates were then centrifuged at 12,000 × g for 10 min at 4°C to collect the supernatant. Protein content was determined by the Bradford protein assay kit. Equal amounts of proteins were used for malondialdehyde (MDA) and total GSH assay (Beyotime Institute of Biotechnology, Nantong, China). MDA and total GSH levels were detected by measuring absorbance respectively at 532 nm and 412 nm using a multimode microplate reader (Molecular Devices, SpectraMax 190, USA"}, "SGC-7901 [2]": {"test_system": "SGC-7901", "assay": "MTT assay, growth inhibition / cell viability", "assay_type": "cell-based", "conditions": "Homo sapiens", "description": "as §1, §2"}, "BGC-823 [3]": {"test_system": "BGC-823", "assay": "MTT assay, growth inhibition / cell viability", "assay_type": "cell-based", "conditions": "Homo sapiens", "description": "as §1, §2"}, "[4]": {"assay": "H&E histology of vital organs of xenograft mice", "assay_type": "in vivo", "conditions": "ip once a day for 12 days", "description": "Portions of heart, liver, kidney and tumor tissues from mice were fixed in 4% paraformaldehyde solution for 1 week at room temperature. Specimens were then dehydrated by passing through graded ethanol, cleared in xylene, and embedded in paraffin wax. Tissue blocks were sectioned at 5 μm thickness and used for H&E and immunohistochemical staining. Tumor tissue sections were stained with indicated primary antibodies for overnight followed by secondary antibodies for 2 h. Diaminobenzidine (DAB) was used for detection. The slides were counterstained with hematoxylin for 30 seconds and mounted. For histologic analysis of heart, kidney and liver tissue sections, we performed routine H&E staining and viewed the sections under a light microscope (20× magnification, Nikon, Japan)."}, "[5]": {"assay": "Body weight of xenograft mice", "assay_type": "in vivo", "conditions": "0–12 days, ip once a day; CA10 10 and 20 mg/kg, curcumin 50 mg/kg", "excerpt": "(§4) All animal experiments complied with the Wenzhou Medical University's Policy on the Care and Use of Laboratory Animals. Protocols for animal studies were approved by the Wenzhou Medical University Animal Policy and Welfare Committee (Approved documents: 2016/201). Athymic BALB/c nu/nu female mice weighing 20–22 g (6 weeks old) were purchased from Vital River Laboratories (Beijing, China). Animals were housed (6 animals/gage) at a constant room temperature with a 12/12-hr light/dark cycle and fed a standard rodent diet and water ad libitum. SGC-7901 cells were injected subcutaneously into the right flank of each mice at 1 × 10^6 cells in 0.1 mL PBS. Once tumors reached a volume of 100–200 mm^3, mice were randomly divided into 4 groups. These groups included mice treated with 10 mg/kg CA10, mice treated with 20 mg/kg CA10, mice treated 50 mg/kg curcumin, and control mice receiving vehicle alone. All treatments were carried out with intraperitoneal injections. The body weight and tumor volumes were monitored and determined by measuring length (l) and width (w) and calculated as tumor volume (V = 0.5 × l × w2) at the indicated time points. At the end of treatment period, mice were sacrificed and the tumors were removed and weighed for histological analyses and proteins measurement studies."}, "[6]": {"test_system": "SGC-7901 xenograft tumors", "assay": "In vivo mouse xenograft model, tumor growth", "parameters": "species or system mice", "excerpt": "as §4"}, "SGC-7901 [7]": {"test_system": "SGC-7901", "assay": "Clonogenic (colony formation) assay", "assay_type": "cell-based, human", "conditions": "SGC-7901, 2.5, 5 or 10 μM for 24 h, then 7 days culture", "description": "(§5) The BGC-823 and SGC-7901 cells were seeded at 1000 cells/well in 6 well plates and allowed to attach overnight. Cells were then exposed to various concentrations (2.5, 5 and 10 μM) of CA10 for 24 h in presence and absence of NAC (5 mM). Following treatments, media was changed to fresh culture media and cultures were followed for 7 days. The experiment was terminated by washing the colonies with PBS and fixation with […] at room temperature for 10 min. Colonies were then stained with Crystal violet for 10 min and counted."}, "BGC-823 [8]": {"test_system": "BGC-823", "assay": "Clonogenic (colony formation) assay", "assay_type": "cell-based, human", "conditions": "BGC-823, 2.5, 5 or 10 μM for 24 h, then 7 days culture", "description": "as §5"}, "p-STAT3": {"test_system": "p-STAT3", "assay": "Western blot of p-STAT3", "assay_type": "cell-based, human", "conditions": "SGC-7901, western blot, 1, 3, 6 and 12 h; total STAT3 not changed", "description": "as §3"}},
  "note": "Entries after “also recorded” stand apart in the source; their conditions may differ.",
  "data": [
    {"smiles": "C=CCc1cc(C=C2CCC(=Cc3ccc(O)c(CC=C)c3)C2=O)ccc1O", "note": "[CA10]", "values": [
      {"measurement": "inhibition at 20 µM", "setting": "HT-29", "result": "77.2 ± 4.86", "unit": "%"},
      {"measurement": "inhibition of the normal epithelial cells (selective cytotoxicity in cancer cell lines), in words", "setting": "GES-1; 20 μM, 24 h", "result": "minimal inhibition"},
      {"measurement": "inhibition at 20 µM", "setting": "GES-1; Homo sapiens, GES1, 24 h, normal gastric epithelial cells", "result": "23.4 ± 7.48", "unit": "%"},
      {"measurement": "expression of ER specific proteins (p-PERK, p-eIF2α, ATF-4, CHOP)", "setting": "[1]", "result": "increased expression"},
      {"measurement": "% Of growth inhibition HCT-116", "setting": "HCT-116; 20 μM, 24 h", "result": "75.37 ± 4.52", "unit": "%"},
      {"measurement": "inhibition at 20 µM", "setting": "HCT-116; Homo sapiens, HCT-116, 24 h", "result": 70, "unit": "%"},
      {"measurement": "inhibition at 20 µM", "setting": "SW-480", "result": "77.4 ± 7.84", "unit": "%"},
      {"measurement": "level of total GSH", "setting": "SGC-7901 cells; compared to control", "result": "no significant changes; also recorded: marginally decreased"},
      {"measurement": "MDA level", "setting": "SGC-7901 cells; enhanced at 20 μM", "result": "increased"},
      {"measurement": "IC50", "setting": "SGC-7901 [2]; SGC-7901, 24 h", "result": "15 ± 1.72", "unit": "µM"},
      {"measurement": "inhibition at 20 µM", "setting": "SGC-7901 [2]; SGC-7901, 24 h, 20 μM, 24 h", "result": "> 80", "unit": "%"},
      {"measurement": "IC50", "setting": "SGC-7901 [2]; SGC-7901, 48 h", "result": "6.91 ± 0.43", "unit": "µM"},
      {"measurement": "inhibition at 20 µM", "setting": "BGC-823 [3]; BGC-823, 20 μM, 24 h", "result": "67.5 ± 1.54", "unit": "%"},
      {"measurement": "IC50", "setting": "BGC-823 [3]; BGC-823, 24 h", "result": "13 ± 2.48", "unit": "µM"},
      {"measurement": "IC50", "setting": "BGC-823 [3]; BGC-823, 48 h", "result": "7.14 ± 1.69", "unit": "µM"},
      {"measurement": "toxicity in vital organs (heart, liver, kidney), H&E", "setting": "[4]", "result": "without overt toxicity"},
      {"measurement": "body weight of mice", "setting": "[5]", "result": "no change"},
      {"measurement": "inhibition effect on tumor growth compared to CA10 10 mg/kg or curcumin 50 mg/kg", "setting": "[6]; 20 mg/kg ip once a day for 12 days", "result": "greater inhibition effect"},
      {"measurement": "tumor weight and volume", "setting": "[6]; ip once a day for 12 days, CA10 10 and 20 mg/kg, curcumin 50 mg/kg", "result": "significant reduction"},
      {"measurement": "number of colonies", "setting": "SGC-7901 [7]", "result": "reduced number"},
      {"measurement": "number of colonies", "setting": "BGC-823 [8]", "result": "reduced number"},
      {"measurement": "protein levels of p-STAT3", "setting": "p-STAT3", "result": "decreased"}
    ]}
  ]
}
